Experiments:
ABCG2 = ABCG2 (Homo sapiens, UniProt Q9UNQ0); conditions: S-120 cells, FTC 10 μM
NCI-N87-S120 = test: in vitro cytotoxicity, MTS (Table 14); assay type: cell-based, human; conditions: for effect on SN-38 toxicity in S-120 cells: both S-120 cells, in vitro; for reversal of SN-38 resistance vs Ko143 and YHO-13351: limited studies
Protocol: (§1) Each cell line was maintained according to the recommendations of ATCC and routinely tested for mycoplasma using MYCOALERT™ mycoplasma detection kits (Lonza). The two SN-38-resistant cell lines, MDA-MB-231-5120 and NCI-N87-S120, were established by continuous exposure of the parental cells to stepwise increased concentrations of SN-38 from 6 pM to 120 nM over a period of approximately 2 years. In addition, a revertant cell line (NCI-N87-S120-REV) was obtained after culturing NCI-N87-S120 in SN-38-free medium for 4 months. The S-120 clones were maintained in medium containing 120 nM of SN-38, but cultured in drug-free medium for 7 to 14 days prior to any experiment. All cells were grown at 37° C. as monolayer cultures in a humidified atmosphere of 5% CO2.
(§2) In Vitro cytotoxicity. […] Briefly, cells were placed into wells of 96-well plates. […] From these working solutions, serial 5-fold dilutions were made in sterile media to yield final concentrations between 500 and 0.0064 nM in test wells. […] Cytotoxicity was measured as a percent of growth relative to untreated cells. Dose-response curves were generated from the mean of triplicate determinations, and IC50 values were calculated using GraphPad Prism Software V 6.05 (Advanced Graphics Software).
(§3) The effect of ABCG2 inhibitors on the IC50 values of SN-38 for the parental and resistant cell lines was determined from the respective dose-response curves obtained for SN-38 in the presence of a non-toxic concentration of ABCG2 inhibitors.

Calu-3 tumors = test: Calu-3 xenograft therapy; assay type: in vivo, nude mice; conditions: 0.4 mg/kg SN-38
Capan-1 tumors = test: CL2 vs CL2A linker, Capan-1 xenograft; assay type: in vivo, mice; conditions: 0.2 mg/kg SN-38 twice weekly × 4 weeks
Protocol: FIG. 4C. […] Capan-1 mice (N=10) were treated with 0.2 mg/kg ADC and tumors measured weekly.

[1] = target: T1, Trop-2 on multiple cell lines (Homo sapiens, UniProt P09758); test: in vitro cell binding
T1 construct: endogenous in cells; host or cells: human solid tumour cell lines
T1 sequence (P09758 27-323): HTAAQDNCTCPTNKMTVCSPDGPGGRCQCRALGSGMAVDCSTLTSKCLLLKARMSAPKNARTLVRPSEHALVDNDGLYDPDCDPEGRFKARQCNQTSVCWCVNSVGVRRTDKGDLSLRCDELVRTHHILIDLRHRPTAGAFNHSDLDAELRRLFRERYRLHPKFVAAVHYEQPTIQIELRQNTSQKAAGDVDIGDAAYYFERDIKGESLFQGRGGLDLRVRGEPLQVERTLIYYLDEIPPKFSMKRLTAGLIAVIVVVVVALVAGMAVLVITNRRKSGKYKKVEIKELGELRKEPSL
Protocol: LumiGLO Chemiluminescent Substrate System (KPL, Gaithersberg, Md.) was used to detect antibody binding to cells. Briefly, cells were plated into a 96 black-well, flat-clear-bottom plate overnight. Antibodies were serially diluted 1:2 and added in triplicate, yielding a concentration range from 0.03 to 66.7 nM. After incubating for 1 h at 4° C., the media was removed and the cells washed with fresh cold media followed by the addition of a 1:20,000 dilution of goat-antihuman horseradish peroxidase-conjugated secondary antibody (Jackson Immunoresearch, West Grove, Pa.) for 1 h at 4° C. The plates were again washed before the addition of the LumiGLO reagent. Plates were read for luminescence using an Envision plate reader (Perkin Elmer, Boston Mass.). Data were analyzed by non-linear regression to determine the equilibrium dissociation constant (KD). Statistical comparisons of KD-values were made with Prism GraphPad Software (v4.03) (Advanced Graphics Software, Inc.; Encinitas, Calif.) using an F-Test on the best-fit curves for the data. Significance was set at P<0.05.

MDA-MB-468 TNBC tumors = test: MDA-MB-468 TNBC xenograft therapy; assay type: in vivo, nude mice; conditions: one animal each, tumors progressed after irinotecan
in vivo = conditions: nude, mouse, 773 ug
[2] = tested on: SK-MES-1 human squamous cell lung tumors; test: SK-MES-1 xenograft therapy; assay type: in vivo, nude mice; conditions: irinotecan at MTD
[3] = monotherapy weekly or once every 3 weeks; cited from earlier work
NCI-N87-S-120 tumors = test: SN-38-resistant xenograft therapy; conditions: IMMU-132 0.5 mg twice weekly ×4 weeks; irinotecan 40 mg/kg q2dx5
COLO 205 tumors = test: COLO 205 xenograft therapy; conditions: 24 mg SN-38/kg, q2dx5
BxPC-3 = test: dsDNA breaks, γH2AX flow cytometry; assay type: cell-based, human; conditions: 20 μg/ml for 30 min
Protocol: For drug activity testing, BxPC-3 cells were seeded in 6-well plates at 5×10^5 cells/well and held at 37° C. overnight. […] The following morning, cells were trypsinized briefly, spun down, stained with Fixable Viability Stain 450 (BD Biosciences, San Jose, Calif.), washed with 1% BSA-PBS, and then fixed in 4% formalin for 15 min, washed again and permeabilized in 0.15% Triton-X100 in PBS for another 15 min. After washing twice with 1% BSA-PBS, cells were incubated with mouse anti-γH2AX-AF488 (EMD Millipore Corporation, Temecula, Calif.) for 45 min at 4° C. The signal intensity of γH2AX was measured by flow cytometry using a BD FACSCanto (BD Biosciences, San Jose, Calif.).

NCI-N87 = test: in vitro cytotoxicity, MTS (Table 14); assay type: cell-based; conditions: Homo sapiens, YHO-13351 2 μM, Ko143 1 μM where added
Protocol: as §1
In Vitro cytotoxicity. […] Briefly, cells were placed into wells of 96-well plates. […] Cytotoxicity was measured as a percent of growth relative to untreated cells. Dose-response curves were generated from the mean of triplicate determinations, and IC50 values were calculated using GraphPad Prism Software V 6.05 (Advanced Graphics Software).
as §3

MDA-MB-231 = test: in vitro cytotoxicity, MTS (Table 14); assay type: cell-based, human; conditions: Homo sapiens, YHO-13351 2 μM where added
Protocol: as §1, §2, §3

MDA-MB-231-S120 = test: in vitro cytotoxicity, MTS (Table 14); assay type: cell-based, human
Protocol: as §1, §2, §3

Capan-1 xenografts = test: combined radioimmunotherapy and ADC, Capan-1 xenograft; assay type: in vivo, nude mice
Source text: The present study examined combinations of ^90Y-hPAM4 IgG with RS7-SN-38 in nude mice bearing 0.35 cm^3 subcutaneous xenografts of the human pancreatic cancer cell line, Capan-1. […] These studies provide the first evidence that combined radioimmunotherapy and ADC enhances efficacy at safe doses.

Chain of ABCG2 (Q9UNQ0 whole entry): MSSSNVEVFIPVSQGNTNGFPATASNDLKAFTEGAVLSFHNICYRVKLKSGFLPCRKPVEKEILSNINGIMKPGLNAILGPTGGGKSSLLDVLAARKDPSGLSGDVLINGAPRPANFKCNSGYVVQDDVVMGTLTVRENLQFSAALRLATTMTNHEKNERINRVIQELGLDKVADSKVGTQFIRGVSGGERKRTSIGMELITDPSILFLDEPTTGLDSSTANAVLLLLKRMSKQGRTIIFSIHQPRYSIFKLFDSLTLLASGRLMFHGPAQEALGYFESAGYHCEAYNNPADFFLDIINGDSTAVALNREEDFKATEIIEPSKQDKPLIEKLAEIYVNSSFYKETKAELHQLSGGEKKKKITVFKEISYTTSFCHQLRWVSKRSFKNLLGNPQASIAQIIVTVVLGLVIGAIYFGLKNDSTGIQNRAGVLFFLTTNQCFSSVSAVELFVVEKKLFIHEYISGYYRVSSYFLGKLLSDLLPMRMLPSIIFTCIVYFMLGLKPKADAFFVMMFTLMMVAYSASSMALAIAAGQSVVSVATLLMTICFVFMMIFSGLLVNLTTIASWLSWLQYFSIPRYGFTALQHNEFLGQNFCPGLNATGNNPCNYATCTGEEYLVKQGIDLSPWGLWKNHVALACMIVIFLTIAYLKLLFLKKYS

## COc1ccc2c3c([nH]c2c1)[C@H](C=C(C)C)N1C(=O)[C@@H]2CCCN2C(=O)[C@@H]1C3 [FTC]
ABCG2
  reduction of intracellular PhA on omission of FTC: greater than 95%
NCI-N87-S120
  effect on SN-38 toxicity in S-120 cells: restored toxicity of SN-38
  reversal of SN-38 resistance vs Ko143 and YHO-13351: comparable or less potency

## CCc1c2c(nc3ccc(O)cc13)-c1cc3c(c(=O)n1C2)COC(=O)[C@]3(O)CC [SN-38 (5 min - 2 h)]
FIG. 12
  AUC: 3.9 (µg/mL·h)

## cyclosporine A
NCI-N87-S120
  reversal of SN-38 resistance vs Ko143 and YHO-13351: comparable or less potency

## hRS7-CL2-SN-38
Calu-3 tumors
  response at higher dose: remained tumor-free until the end of the study on day 147
Capan-1 tumors
  mice tumor-free at end of study (day 140): 40%

## CCN(CC)CC(=O)OC1CCN(c2ccc(/C=C(\C#N)c3ccc(OC)c(OC)c3)s2)CC1.CS(=O)(=O)O [YHO-13351]
NCI-N87-S120
  effect on SN-38 toxicity in S-120 cells: restored toxicity of SN-38

## hRS7-NEM: hRS7 treated with TCEP and conjugated with N-ethylmaleimide [reference compound]
[1]
  KD: in the sub-nanomolar range

## CCc1c2c(nc3ccc(OC(=O)N4CCC(N5CCCCC5)CC4)cc13)-c1cc3c(c(=O)n1C2)COC(=O)[C@]3(O)CC [irinotecan, reference compound]
MDA-MB-468 TNBC tumors
  decrease in tumor size on re-treatment: 23%
In vivo
  AUC: 21000 ng·h/mL
[2]
  antitumor effect vs specific conjugate: the same antitumor effects as the specific hRS7-SN-38 conjugate
[3]
  grade 3 and 4 neutropenia incidence: 14 to 26%
NCI-N87-S-120 tumors
  survival benefit: no significant survival benefit
COLO 205 tumors
  efficacy at MTD: as effective as hRS7-CL2-SN-38

## CCc1c2c(nc3ccc(O[C@@H]4O[C@H](C(=O)O)[C@@H](O)[C@H](O)[C@H]4O)cc13)-c1cc3c(c(=O)n1C2)COC(=O)[C@]3(O)CC [SN-38G (5 min - 6 h)]
FIG. 12
  AUC: 11.6 (µg/mL·h)

## hA20-CL2A-SN-38 [reference compound]
BxPC-3
  Mean Fluorescence Intensity (γH2AX): 2246 ± 58
BxPC-3; listed as hA20-SN-38
  Percent Positive (γH2AX): 12.7 ± 2.4%
[2]
  antitumor effect vs specific conjugate: the same antitumor effects as the specific hRS7-SN-38 conjugate
Capan-1 tumors
  mice tumor-free at end of study (day 140): 20%

## COc1cc2c(cc1OC)CN(CCc1ccc(NC(=O)c3cccc4c(=O)c5cccc(OC)c5[nH]c34)cc1)CC2 [GF120918]
NCI-N87-S120
  effect on SN-38 toxicity in S-120 cells: restored toxicity of SN-38
  reversal of SN-38 resistance vs Ko143 and YHO-13351: comparable or less potency

## CC(=O)O[C@H]1C(=O)[C@@]2(C)[C@H]([C@H](OC(=O)c3ccccc3)[C@]3(O)C[C@H](OC(=O)[C@H](O)[C@@H](NC(=O)c4ccccc4)c4ccccc4)C(C)=C1C3(C)C)[C@]1(OC(C)=O)CO[C@@H]1C[C@@H]2O [Paclitaxel]
NCI-N87
  IC50: 7.9 ± 4 nM
MDA-MB-231
  IC50: 2.5 ± 0.1 nM
NCI-N87-S120; Homo sapiens, NCI-N87-S120, YHO-13351 2 μM, Ko143 1 μM where added
  IC50: 8.6 ± 6.5 nM
NCI-N87-S120; IC50 mean of NCI-N87-S120 / NCI-N87
  RF (resistance factor): 1.1
MDA-MB-231-S120; Homo sapiens, MDA-MB-231-S120, YHO-13351 2 μM where added
  IC50: 3.2 ± 0.7 nM
MDA-MB-231-S120; IC50 mean of MDA-MB-231-S120 / MDA-MB-231
  RF (resistance factor): 1.3

B1: ^90Y-hPAM4 (conjugate, chains of the INN, looked up)
VH: QVQLQQSGAEVKKPGASVKVSCEASGYTFPSYVLHWVKQAPGQGLEWIGYINPYNDGTQYNEKFKGKATLTRDTSINTAYMELSRLRSDDTAVYYCARGFGGSYGFAYWGQGTLVTVSS
VL: DIQLTQSPSSLSASVGDRVTMTCSASSSVSSSYLYWYQQKPGKAPKLWIYSTSNLASGVPARFSGSGSGTDFTLTISSLQPEDSASYFCHQWNRYPYTFGGGTRLEIK
modifications: 90Y radiolabel
Capan-1 xenografts; 75 μCi alone
  mice tumor-free after 20 weeks: 1 of 10
Capan-1 xenografts; 130 μCi RAIT alone
  animals tumor-free: 5 of 10

B2: hPAM4: unconjugated humanized PAM4 anti-MUC5ac antibody (antibody, chains of the INN, looked up, V domains shown)
VH: QVQLQQSGAEVKKPGASVKVSCEASGYTFPSYVLHWVKQAPGQGLEWIGYINPYNDGTQYNEKFKGKATLTRDTSINTAYMELSRLRSDDTAVYYCARGFGGSYGFAYWGQGTLVTVSS
VL: DIQLTQSPSSLSASVGDRVTMTCSASSSVSSSYLYWYQQKPGKAPKLWIYSTSNLASGVPARFSGSGSGTDFTLTISSLQPEDSASYFCHQWNRYPYTFGGGTRLEIK
Capan-1 xenografts; given alone
  anti-tumor activity of unconjugated antibody: Neither unconjugated hPAM4 nor hRS7 antibodies had anti-tumor activity when given alone
